How the values were obtained:
PKB/c-Akt = PKB/c-Akt Ser473 phosphorylation and PKB activity in HIT cells; format: cell-based, hamster
Protocol: Phosphorylated PKB/c-Akt was analyzed by employing the PhosphoPlus Akt(Ser473) Antibody Kit (New England Biolabs) according to the manufacturer's instructions. Briefly, HIT cells were cultured as described above. […] Following centrifugation of the lysate for 20 min at 14,000×g and 4° C., aliquotes of the supernatant containing 200 μg protein were separated by SDS-PAGE over a 7.5% polyacrylamide gel. Proteins were electro-transferred onto PVDF-membrane (Immobilon-P, Millipore) overnight at stabilized 125 mA. Immunoblotting was performed with either rabbit polyclonal Phospho-Akt(Ser473) antibody or with rabbit polyclonal […] antibody and HRP-conjugated secondary antibodies. For detection the membrane was incubated with LumiGLO containing peroxide and exposed to X-ray film.
Analysis of PKB/Akt activity was performed employing the Akt1-PKBα e Immunoprecipitation Kinase Assay Kit (Upstate Biotech.) according to the manufacturer's instructions. Lysates of HIT cells containing 1 mg of protein were subjected to immunoprecipitation. The immunoprecipitate was used for PKB/Akt kinase assay using γ[^32P]-ATP and Akt/SGK-specific substrate peptide. Phosphorylated substrates were blotted onto phosphocellulose P81 paper and analyzed by LSC.

rat insulin-I promoter = assay: Insulin promoter-driven DsRed expression in co-transfected human islet cells; format: cell-based
Protocol: Data are presented as the ratio of fluorescence obtained at minutes 240 and 60 and represent mean values ±S.E. (n=11).
Detection of fluorescence by digital imaging fluorescence microscopy was performed as described previously (Leibiger et al., 1998a; Leibiger et al., 1998b). Briefly, transfected cells were grown on 24-mm glass coverslips. After stimulation the coverslips were placed into a perifusion chamber which was mounted on an inverted microscope (Zeiss Axiovert 135TV). Temperature was kept at 37° C. and the cells were perfused with RPMI 1640 medium. The objective lens used was a Zeiss-Fluar ×40/1.30 oil Imm Korr. Fluorescence imaging was performed with a cooled charged-coupled device camera (CH250 with KAF 1400, Photometrics, Tucson, Ariz.) connected to an imaging system (Inovision) with fluorescence excitation from a SPEX fluorolog-2 CM1T11I spectrofluorometer (Spex Industries). […]
On-line monitoring was initiated 60 min following the start of stimulation and the 60-min value of GFP- or DsRed-fluorescence was set to 1.0. Cells to be monitored were chosen randomly at minute 60 from six fields of vision and fluorescence was monitored up to minute 240. By overlaying the fluorescence and phase-contrast images, the position of cells on the coverslip could be checked. Fluorescence intensity was calculated by using the ISee-software for UNIX (Inovision Corporation).

βGK mRNA = βGK mRNA steady-state levels (comparative RT-PCR) in cultured pancreatic islets / insulin-producing cells; format: cell-based, rat
Protocol: Insulin-producing HIT-T15 cells were obtained from ATCC. HIT cells were reported to show glucose responsiveness at subphysiological concentrations between 0.1 and 2 mM (Sharma et al., 1995). HIT cells were grown in RPMI 1640 medium supplemented with 100 units/ml penicillin, 100 μg/ml streptomycin, 2 mM glutamine and 10% fetal calf serum at 5% CO2 and 37° C. Pancreatic islets were isolated from normally fed male Wistar rats and from mice by collagenase digestion. Isolated islets were incubated overnight at 5% CO2 and 37° C. in RPMI 1640 medium, supplemented as described above. Transfection of HIT-T15 and islet cells was performed overnight by the lipofectamine technique in RPMI 1640 medium, without serum and antibiotics. For on-line monitoring, cells were grown and transfected on 24-mm glass coverslips. Following transfection, HIT cells were cultured for 12-18 h in RPMI 1640 medium containing 0.1 mM glucose, 10% fetal calf serum and supplemented as above. Before stimulation, islets and islet cells were incubated for 2 h in RPMI 1640 medium, supplemented as above but containing 3 mM glucose. All expression constructs were prepared using the Qiagen Plasmid Maxi Kit (Qiagen), except those used to produce the adenoviruses which where purified by ultracentrifugation via a CsCI-gradient (as described in Sambrook et al, 1989).
All experiments were performed in RPMI 1640 medium, supplemented as above. Protein kinase inhibitors, antibodies or nifedipine were added to the culture medium 30 min prior to stimulation and were kept in the medium throughout stimulation. After stimulation islets, islet cells and HIT cells were cultured further at substimulatory glucose concentrations (0.1 mM for HIT cells and 3 mM for islets and islet cells). For RNA-analysis, islets and cells were harvested 60 min after start of stimulation, if not indicated otherwise. For analysis of protein kinase activities or tyrosine phosphorylation, cells were harvested immediately following stimulation.
RNA Analysis Levels of βGK mRNA were analyzed by RNase-protection assays and comparative RT-PCR. […] Quantification of the protected complexes was performed by phosphorimaging. […] Levels of μGK mRNA were analyzed by RT-PCR using primers 5′-[…]-3′(SEQ ID NO: 1) and 5′-[…]-3′(SEQ ID NO: 2) for characterizing μGK mRNA in HIT cells and primers 5′-[…]-3′(SEQ ID NO: 3) and 5′-[…]-3′(SEQ ID NO: 4) for μGK mRNA in rat and mouse pancreatic islets and islet cells. Levels of μ-actin mRNA were analyzed by RT-PCR using primers 5′-[…]-3′(SEQ ID NO: 5) and 5′-[…]-3′(SEQ ID NO: 6). […] PCR products were separated on a 6% polyacrylamide sequencing gel and analyzed by phosphorimaging. […]

## CC(=O)OCOC(c1ccc2ccccc2c1)P(=O)(OCOC(C)=O)OCOC(C)=O (stereo not drawn) [HNMPA-(AM)3]
PKB/c-Akt; FIG. 7E, PKB activity 10 min after start of glucose stimulation
  effect on glucose-induced activation of PKB: abolished

## autocamtide-2 related inhibitory peptide
Rat insulin-I promoter; 400 nM AC, 10 nM rapamycin, low concentrations: 50 nM wortmannin, 25 μM LY 294002 (FIG. 15)
  effect of inhibitor on insulin-stimulated insulin gene expression: sensitive
βGK mRNA; 5 mU/ml insulin, 400 nM AC, FIG. 5B
  effect of inhibitor on insulin-stimulated βGK mRNA steady-state levels: altered neither

## insulin
Rat insulin-I promoter; 5 mU/ml insulin for 5 min, sub-stimulatory glucose
  insulin promoter-driven DsRed expression upon insulin stimulation: up-regulation
βGK mRNA; pancreatic islets, fully supplemented culture medium, substimulatory glucose
  exogenous insulin sufficient to evoke βGK mRNA levels: 50 μU insulin per ml
PKB/c-Akt; 16.7 mM glucose or 5 mU insulin/ml at substimulatory glucose
  time following stimulation at which PKB activation (Ser473 phosphorylation) was observed: 2 min
